ChEMBL document CHEMBL6109109, “Fatty acid binding protein 5 inhibitors as novel anticancer agents against metastatic castration-resistant prostate cancer” (Bioorg Med Chem, 2025)

Tests used:
Format in all cases: functional
PC-3 [1] = assay: Synergistic anticancer activity against human PC-3 cells assessed as cell growth inhibition at 1.25 uM measured after 72 hrs in presence of 0.01 uM of topotecan by MTT assay relative to control; conditions: read-out: GI
PC-3 [2] = assay: Synergistic anticancer activity against human PC-3 cells assessed as cell growth inhibition at 0.625 uM measured after 72 hrs in presence of 1 uM of topotecan by MTT assay relative to control; conditions: read-out: GI
PC-3 [3] = assay: Synergistic anticancer activity against human PC-3 cells assessed as cell growth inhibition at […] measured after 72 hrs in presence of 0.0001 uM of topotecan by MTT assay relative to control; conditions: dose 2.5 µM, read-out: GI
[4] = Synergistic anticancer activity against mouse RCaP cells assessed as cell growth inhibition at 1.25 uM measured after 72 hrs in presence of 0.0001 uM of topotecan by MTT assay relative to control; conditions: read-out: GI
[5] = Synergistic anticancer activity against mouse RCaP cells assessed as cell growth inhibition at 1.25 uM measured after 72 hrs in presence of 0.001 uM of topotecan by MTT assay relative to control; conditions: read-out: GI
PC-3 [6] = assay: Synergistic anticancer activity against human PC-3 cells assessed as cell growth inhibition at 0.625 uM measured after 72 hrs in presence of 0.001 uM of topotecan by MTT assay relative to control; conditions: read-out: GI
[7] = Synergistic anticancer activity against mouse RCaP cells assessed as cell growth inhibition at 1.25 uM measured after 72 hrs in presence of 0.1 uM of topotecan by MTT assay relative to control; conditions: read-out: GI
[8] = Synergistic anticancer activity against mouse RCaP cells assessed as cell growth inhibition at 1.25 uM measured after 72 hrs in presence of 0.01 uM of topotecan by MTT assay relative to control; conditions: read-out: GI
PC-3 [9] = assay: Cytotoxicity against human PC-3 cells assessed as cell growth inhibition at […] measured after 72 hrs by MTT assay relative to control; conditions: dose 2.5 µM, read-out: GI
PC-3 [10] = assay: Synergistic anticancer activity against human PC-3 cells assessed as cell growth inhibition at 0.625 uM measured after 72 hrs in presence of 0.01 uM of topotecan by MTT assay relative to control; conditions: read-out: GI
[11] = Synergistic anticancer activity against mouse RCaP cells assessed as cell growth inhibition at 0.625 uM measured after 72 hrs in presence of 1 uM of topotecan by MTT assay relative to control; conditions: read-out: GI
PC-3 [12] = assay: Synergistic anticancer activity against human PC-3 cells assessed as cell growth inhibition at […] measured after 72 hrs in presence of 0.00001 uM of topotecan by MTT assay relative to control; conditions: dose 2.5 µM, read-out: GI
PC-3 [13] = assay: Synergistic anticancer activity against human PC-3 cells assessed as cell growth inhibition at […] measured after 72 hrs in presence of 0.001 uM of topotecan by MTT assay relative to control; conditions: dose 2.5 µM, read-out: GI
[14] = Synergistic anticancer activity against mouse RCaP cells assessed as cell growth inhibition at 0.625 uM measured after 72 hrs in presence of 0.001 uM of topotecan by MTT assay relative to control; conditions: read-out: GI
PC-3 [15] = assay: Synergistic anticancer activity against human PC-3 cells assessed as cell growth inhibition at 0.625 uM measured after 72 hrs in presence of 0.1 uM of topotecan by MTT assay relative to control; conditions: read-out: GI
PC-3 [16] = assay: Synergistic anticancer activity against human PC-3 cells assessed as cell growth inhibition at 1.25 uM measured after 72 hrs in presence of 10 uM of topotecan by MTT assay relative to control; conditions: read-out: GI
[17] = Synergistic anticancer activity against mouse RCaP cells assessed as cell growth inhibition at 0.625 uM measured after 72 hrs in presence of 0.1 uM of topotecan by MTT assay relative to control; conditions: read-out: GI
[18] = Synergistic anticancer activity against mouse RCaP cells assessed as cell growth inhibition at 1.25 uM measured after 72 hrs in presence of 1 uM of topotecan by MTT assay relative to control; conditions: read-out: GI
PC-3 [19] = assay: Synergistic anticancer activity against human PC-3 cells assessed as cell growth inhibition at 0.625 uM measured after 72 hrs in presence of 0.0001 uM of topotecan by MTT assay relative to control; conditions: read-out: GI
PC-3 [20] = assay: Synergistic anticancer activity against human PC-3 cells assessed as cell growth inhibition at […] measured after 72 hrs in presence of 0.1 uM of topotecan by MTT assay relative to control; conditions: dose 2.5 µM, read-out: GI
[21] = Synergistic anticancer activity against mouse RCaP cells assessed as cell growth inhibition at 0.625 uM measured after 72 hrs in presence of 10 uM of topotecan by MTT assay relative to control; conditions: read-out: GI
[22] = Synergistic anticancer activity against mouse RCaP cells assessed as cell growth inhibition at 0.625 uM measured after 72 hrs in presence of 0.01 uM of topotecan by MTT assay relative to control; conditions: read-out: GI
[23] = Cytotoxicity against mouse RCaP cells assessed as cell growth inhibition at 0.625 uM measured after 72 hrs by MTT assay relative to control; conditions: read-out: GI
PC-3 [24] = assay: Synergistic anticancer activity against human PC-3 cells assessed as cell growth inhibition at 1.25 uM measured after 72 hrs in presence of 0.00001 uM of topotecan by MTT assay relative to control; conditions: read-out: GI
PC-3 [25] = assay: Synergistic anticancer activity against human PC-3 cells assessed as cell growth inhibition at 1.25 uM measured after 72 hrs in presence of 0.0001 uM of topotecan by MTT assay relative to control; conditions: read-out: GI
PC-3 [26] = assay: Synergistic anticancer activity against human PC-3 cells assessed as cell growth inhibition at […] measured after 72 hrs in presence of 1 uM of topotecan by MTT assay relative to control; conditions: dose 2.5 µM, read-out: GI
PC-3 [27] = assay: Cytotoxicity against human PC-3 cells assessed as cell growth inhibition at 0.625 uM measured after 72 hrs by MTT assay relative to control; conditions: read-out: GI
PC-3 [28] = assay: Synergistic anticancer activity against human PC-3 cells assessed as cell growth inhibition at 1.25 uM measured after 72 hrs in presence of 1 uM of topotecan by MTT assay relative to control; conditions: read-out: GI
PC-3 [29] = assay: Synergistic anticancer activity against human PC-3 cells assessed as cell growth inhibition at […] measured after 72 hrs in presence of 10 uM of topotecan by MTT assay relative to control; conditions: dose 2.5 µM, read-out: GI
PC-3 [30] = assay: Synergistic anticancer activity against human PC-3 cells assessed as cell growth inhibition at 0.625 uM measured after 72 hrs in presence of 0.00001 uM of topotecan by MTT assay relative to control; conditions: read-out: GI
PC-3 [31] = assay: Synergistic anticancer activity against human PC-3 cells assessed as cell growth inhibition at 0.625 uM measured after 72 hrs in presence of 10 uM of topotecan by MTT assay relative to control; conditions: read-out: GI
PC-3 [32] = assay: Synergistic anticancer activity against human PC-3 cells assessed as cell growth inhibition at 1.25 uM measured after 72 hrs in presence of 0.1 uM of topotecan by MTT assay relative to control; conditions: read-out: GI
[33] = Synergistic anticancer activity against mouse RCaP cells assessed as cell growth inhibition at 0.625 uM measured after 72 hrs in presence of 0.00001 uM of topotecan by MTT assay relative to control; conditions: read-out: GI

Compound COc1ccccc1[C@H]1[C@H](C(=O)O)[C@H](c2ccccc2OC)[C@H]1C(=O)Oc1cc(-c2ccc3c(c2)OCO3)ccc1-c1ccccc1 has an inhibition of growth at 1.25 µM (PC-3 [1]) of 55.8%, an inhibition of growth at 0.625 µM (PC-3 [2]) of 90.2% and an inhibition of growth at […] (PC-3 [3]) of 25.3%. The inhibition of growth at 1.25 µM [4] was -1.6%, the inhibition of growth at 1.25 µM [5] was 0.37% and the inhibition of growth at 0.625 µM (PC-3 [6]) was 16.9%. For the same compound, the inhibition of growth at 1.25 µM [7] was 90%, the inhibition of growth at 1.25 µM [8] was 8.37% and the inhibition of growth at […] (PC-3 [9]) was 7.37%. For the same compound, the inhibition of growth at 0.625 µM (PC-3 [10]) was 48%, the inhibition of growth at 0.625 µM [11] was 97.9% and the inhibition of growth at […] (PC-3 [12]) was 15.1%. For the same compound, the inhibition of growth at […] (PC-3 [13]) was 34.3%, the inhibition of growth at 0.625 µM [14] was -4.87% and the inhibition of growth at 0.625 µM (PC-3 [15]) was 69.4%. It also gave an inhibition of growth at 1.25 µM (PC-3 [16]) of 93.4%, an inhibition of growth at 0.625 µM [17] of 90.2% and an inhibition of growth at 1.25 µM [18] of 97.6%. The inhibition of growth at 0.625 µM (PC-3 [19]) was 8.03%, the inhibition of growth at […] (PC-3 [20]) was 67.4% and the inhibition of growth at 0.625 µM [21] was 99.2%. It also gave an inhibition of growth at 0.625 µM [22] of 10%, an inhibition of growth at 0.625 µM [23] of -2.53% and an inhibition of growth at 1.25 µM (PC-3 [24]) of 12.9%. For the same compound, the inhibition of growth at 1.25 µM (PC-3 [25]) was 14.7%, the inhibition of growth at […] (PC-3 [26]) was 90.5% and the inhibition of growth at 0.625 µM (PC-3 [27]) was -2.63%. It also gave an inhibition of growth at 1.25 µM (PC-3 [28]) of 92.3%, an inhibition of growth at […] (PC-3 [29]) of 92.9% and an inhibition of growth at 0.625 µM (PC-3 [30]) of 1.6%. The inhibition of growth at 0.625 µM (PC-3 [31]) was 93.2%, the inhibition of growth at 1.25 µM (PC-3 [32]) was 72.5% and the inhibition of growth at 0.625 µM [33] was -2.77%.
